Experiments:
Type in all cases: functional
[1] = Cytotoxicity against Homo sapiens (human) CNS cancer cells after 48 hr by SRB assay; details: Cancer cell lines
SF-268 = experiment: Cytotoxicity against Homo sapiens (human) SF268 cells assessed as cellular growth after 48 hr by Alamar blue assay; parameters: concentration or dose not given beside the values
OVCAR-3 = experiment: Cytotoxicity against Homo sapiens (human) OVCAR3 cells after 48 hr by SRB assay; details: OVCAR-3, 48 h
MDA-MB-231 = experiment: Cytotoxicity against Homo sapiens (human) MDA-MB-231 cells after 48 hr by SRB assay; details: MDA-MB-231, 48 h
RPMI-8226 = experiment: Cytotoxicity against Homo sapiens (human) RPMI8226 cells after 48 hr by SRB assay; details: RPMI-8226, 48 h
SF-539 = experiment: Cytotoxicity against Homo sapiens (human) SF539 cells after 48 hr by SRB assay; details: SF-539, 48 h
COLO 205 = experiment: Cytotoxicity against Homo sapiens (human) COLO205 cells after 48 hr by SRB assay; details: COLO 205, 48 h
ACHN = experiment: Cytotoxicity against Homo sapiens (human) ACHN cells after 48 hr by SRB assay
[2] = Cytotoxicity against Homo sapiens (human) breast cancer cells after 48 hr by SRB assay; details: Cancer cell lines
HT-29 = experiment: Cytotoxicity against Homo sapiens (human) HT-29 cells after 48 hr by SRB assay; details: HT-29, 48 h
[3] = Cytotoxicity against Homo sapiens (human) NCI-ADR-RES cells after 48 hr by SRB assay
UACC-62 = experiment: Cytotoxicity against Homo sapiens (human) UACC62 cells after 48 hr by SRB assay; details: UACC-62, 48 h
SK-MEL-2 = experiment: Cytotoxicity against Homo sapiens (human) SK-MEL-2 cells after 48 hr by SRB assay; details: SK-MEL-2, 48 h
[4] = Cytotoxicity against Homo sapiens (human) ovarian cancer cells after 48 hr by SRB assay; details: Cancer cell lines
HCT-15 = experiment: Cytotoxicity against Homo sapiens (human) HCT15 cells after 48 hr by SRB assay; details: HCT-15, 48 h
PC-3 = experiment: Cytotoxicity against Homo sapiens (human) PC3 cells after 48 hr by SRB assay; details: PC-3, 48 h
[5] = Cytotoxicity against Homo sapiens (human) NCI-H322 cells after 48 hr by SRB assay; details: NCI-H322, 48 h
[6] = Cytotoxicity against Homo sapiens (human) melanoma cells after 48 hr by SRB assay; details: Melanoma cell
T47D = experiment: Cytotoxicity against Homo sapiens (human) T47D cells after 48 hr by SRB assay
NCI-H23 = experiment: Cytotoxicity against Homo sapiens (human) NCI-H23 cells after 48 hr by SRB assay; details: NCI-H23, 48 h
UO-31 = experiment: Cytotoxicity against Homo sapiens (human) UO31 cells after 48 hr by SRB assay; details: UO-31, 48 h
[7] = Cytotoxicity against Homo sapiens (human) non-small cell lung cancer cells after 48 hr by SRB assay; details: Cancer cell lines
SW-620 = experiment: Cytotoxicity against Homo sapiens (human) SW620 cells after 48 hr by SRB assay; details: SW-620, 48 h
786-0 = experiment: Cytotoxicity against Homo sapiens (human) 786-0 cells after 48 hr by SRB assay; details: 786-0, 48 h
[8] = Cytotoxicity against Homo sapiens (human) prostate cancer cells after 48 hr by SRB assay; details: Cancer cell lines
HCC 2998 = experiment: Cytotoxicity against Homo sapiens (human) HCC2998 cells after 48 hr by SRB assay; details: HCC 2998, 48 h
MCF7 [9] = experiment: Cytotoxicity against Homo sapiens (human) MCF7 cells after 48 hr by SRB assay; details: MCF7, 48 h
SK-MEL-5 = experiment: Cytotoxicity against Homo sapiens (human) SK-MEL-5 cells after 48 hr by SRB assay; details: SK-MEL-5, 48 h
MDA-MB-435 = experiment: Cytotoxicity against Homo sapiens (human) MDA-MB-435 cells after 48 hr by SRB assay; details: MDA-MB-435, 48 h
DU-145 = experiment: Cytotoxicity against Homo sapiens (human) DU145 cells after 48 hr by SRB assay; details: DU-145, 48 h
NCI-H522 = experiment: Cytotoxicity against Homo sapiens (human) NCI-H522 cells after 48 hr by SRB assay; details: NCI-H522, 48 h
SK-OV-3 = experiment: Cytotoxicity against Homo sapiens (human) SKOV3 cells after 48 hr by SRB assay; details: SK-OV-3, 48 h
MCF7 [10] = experiment: Cytotoxicity against Homo sapiens (human) MCF7 cells assessed as cellular growth after 48 hr by Alamar blue assay; parameters: concentration or dose not given beside the values
NCI-H460 = experiment: Cytotoxicity against Homo sapiens (human) NCI-H460 cells after 48 hr by SRB assay; details: NCI-H460, 48 h
SNB-19 = experiment: Cytotoxicity against Homo sapiens (human) SNB19 cells after 48 hr by SRB assay; details: SNB-19, 48 h
OVCAR-4 = experiment: Cytotoxicity against Homo sapiens (human) OVCAR4 cells after 48 hr by SRB assay; details: OVCAR-4, 48 h
[11] = Cytotoxicity against Homo sapiens (human) leukemia cells after 48 hr by SRB assay; details: Leukemia cell
IGROV-1 = experiment: Cytotoxicity against Homo sapiens (human) IGROV1 cells after 48 hr by SRB assay; details: IGROV-1, 48 h
M14 = experiment: Cytotoxicity against Homo sapiens (human) M14 cells after 48 hr by SRB assay; details: M14, 48 h
RXF 393 = experiment: Cytotoxicity against Homo sapiens (human) RXF393 cells after 48 hr by SRB assay; details: RXF 393, 48 h
KM12 = experiment: Cytotoxicity against Homo sapiens (human) KM12 cells after 48 hr by SRB assay; details: KM12, 48 h
SK-MEL-28 = experiment: Cytotoxicity against Homo sapiens (human) SK-MEL-28 cells after 48 hr by SRB assay; details: SK-MEL-28, 48 h
EKVX = experiment: Cytotoxicity against Homo sapiens (human) EKVX cells after 48 hr by SRB assay
BT-549 = experiment: Cytotoxicity against Homo sapiens (human) BT549 cells after 48 hr by SRB assay; details: BT-549, 48 h
U-251 = experiment: Cytotoxicity against Homo sapiens (human) U251 cells after 48 hr by SRB assay; details: U-251, 48 h
CAKI-1 = experiment: Cytotoxicity against Homo sapiens (human) Caki1 cells after 48 hr by SRB assay; details: CAKI-1, 48 h

NS(=O)(=O)c1ccc(N2N=C3c4ccccc4CC3C2c2cccs2)cc1 (stereo not drawn)
GI50 [1]: 36.4 µM | TGI [1]: 70.3 µM | Activity (SF-268): <=32% | GI50 (OVCAR-3): 24.8 µM | GI50 (MDA-MB-231): 16.8 µM | GI50 (RPMI-8226): 32.3 µM | GI50 (SF-539): 17.4 µM | GI50 (COLO 205): 58.9 µM | GI50 (ACHN): 19.8 µM | GI50 [2]: 38.3 µM | TGI [2]: 52.1 µM | GI50 (HT-29): 26.1 µM | GI50 [3]: 17.1 µM | GI50 (UACC-62): 21.8 µM | GI50 (SK-MEL-2): > 100 µM | GI50 [4]: 40.8 µM | TGI [4]: 79.6 µM | GI50 (HCT-15): 34.7 µM | GI50 (PC-3): 22.1 µM | GI50 [5]: 5.79 µM | GI50 [6]: 41.5 µM | TGI [6]: 51 µM | GI50 (T47D): 66.9 µM | GI50 (NCI-H23): 20.3 µM | GI50 (UO-31): 39.4 µM | GI50 [7]: 29.6 µM | TGI [7]: 45.5 µM | GI50 (SW-620): 35.4 µM | GI50 (786-0): 17.6 µM | GI50 [8]: 18.3 µM | TGI [8]: 48.6 µM | GI50 (HCC 2998): 14.8 µM | GI50 (MCF7 [9]): > 100 µM | GI50 (SK-MEL-5): 18 µM | GI50 (MDA-MB-435): 19.3 µM | GI50 (DU-145): 14.5 µM | GI50 (NCI-H522): 39.3 µM | GI50 (SK-OV-3): 48 µM | Activity (MCF7 [10]): <=32% | GI50 (NCI-H460): > 100 µM | GI50 (SNB-19): 34.4 µM | GI50 (OVCAR-4): > 100 µM | GI50 [11]: 35.1 µM | TGI [11]: 95.5 µM | GI50 (IGROV-1): 30 µM | GI50 (M14): 26 µM | GI50 (RXF 393): 20.6 µM | GI50 (KM12): 15.7 µM | GI50 (SK-MEL-28): 75.6 µM | GI50 (EKVX): 15.9 µM | GI50 (BT-549): 19.3 µM | GI50 (U-251): 19.4 µM | GI50 (CAKI-1): 19.6 µM

— ChEMBL document CHEMBL3046832, “Synthesis of some sulfonamides, disubstituted sulfonylureas or thioureas and some structurally related variants. A class of promising antitumor agents” (2007)
